Among the data in patent publication US4340602A, “Compositions inhibiting estrogen sulfotransferase activity” (Wayne State University, priority 1978, dated 1982) are Ki and inhibition values, retold here.

The target in this assay is T1, Bovine Adrenal Estrogen Sulfotransferase (Bos taurus, UniProt P19217).
T1 construct: The enzyme was isolated from the bovine adrenals; from tissue; host or cells: bovine adrenals; purified by ammonium sulfate fractionation and chromatography on DEAE-cellulose or DEAE-Sephadex A-50
T1 sequence (P19217 1-295): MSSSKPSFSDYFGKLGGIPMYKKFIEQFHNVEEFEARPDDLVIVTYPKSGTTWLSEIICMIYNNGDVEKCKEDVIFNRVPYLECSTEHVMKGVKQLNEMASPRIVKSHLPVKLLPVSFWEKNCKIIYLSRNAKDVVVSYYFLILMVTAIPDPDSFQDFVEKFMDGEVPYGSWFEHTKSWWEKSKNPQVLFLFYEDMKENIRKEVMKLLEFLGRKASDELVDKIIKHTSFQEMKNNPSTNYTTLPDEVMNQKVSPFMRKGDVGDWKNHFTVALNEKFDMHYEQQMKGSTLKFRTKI
In words: Inhibition of bovine adrenal estrogen sulfotransferase (estrone sulfurylation). Format: biochemical. The method, then: Materials are evaluated for activity as estrogen sulfotransferase inhibitors by the method of Rozhin et al, Journal of Biological Chemistry, 252:7214-7220 (October 25, 1977), herein incorporated by reference.
Isolation of Estrogen Sulfotransferase (EC 2.8.2.4). The enzyme was isolated from the bovine adrenals and purified by ammonium sulfate fractionation and column chromatography on DEAE-cellulose or DEAE-SephadexA-50 [Rozhin et al (1974)].
Standard Enzyme Assay. The incubation mixtures contained the following in a total volume of 0.2 ml: 0.4 mM P-Ado-PS; 2 to 23 μM estrone (3-hydroxy-1,3,5(10)-estratriene-17-one), 5×10^5 dpm of [6,7-^3 H]estrone; 5 mM magnesium acetate; 0.19 M Tris/HCl buffer (pH 8.1 at 37°); 5 ug of the enzyme; and 25 μM dithiothreitol. After a 10-min incubation (in the presence of a constant amount of inhibitor and a variable amount of estrone), the boiled mixtures were supplemented with 5 μg of aqueous estrone sulfate. The remaining [^3 H]estrone was extracted three times with 0.3 ml of ethyl ether. The residual ether was removed and the volume adjusted to 0.5 ml with methanol. A sample (25 μl) was applied, together with 10 μg of methanolic estrone sulfate marker, to type SG chromatography media (Gelman Instrument Co., Ann Arbor, Mich.), and developed with chloroform/acetone/acetic acid (110:35:6). After drying the sheet, samples were visualized by spraying with methylene blue (25 mg in 100 ml of 0.05 N H2 SO4), punched out with a cork borer, and counted in 10 ml of dioxane counting liquid. A blank employing a boiled enzyme sample was incubated and the recorded counts were substracted from each determination. The total corrected counts, representing steroid sulfate ester, were converted to nanomoles utilizing the specific activity of [^3 H]estrone. An enzyme unit was defined as that quantity of enzyme which synthesized 1 nmol of estrone sulfate in 1 min under chosen conditions. […] When nonsubstrate steroids were used as the inhibitors, the procedure for the enzyme assay was as described earlier [Rozhin et al (1974)], utilizing 5 μg of enzyme, P-Ado-[^35 S]PS, and unlabeled estrone.
Data Processing. The initial velocity analysis was carried out keeping the concentration of P-Ado-PS at saturation level, varying the estrone concentration and keeping the concentration of the inhibitor at a fixed level. Preliminary plots of the data were made in the double reciprocal form (l/v versus l/[S]), and in the form of replots of slopes (and intercepts) versus inhibitor concentration. On the basis of these plots, the proper inhibition pattern was chosen for each experiment and the data points were fitted to the appropriate equation.
Linear competitive inhibition: [formula]
Hyperbolic competitive inhibition: [formula]
Slope-parabolic non-competitive inhibition: [formula]
All calculations were performed using Cleland's Fortran programs (Adv. Enzymol., 29:1-32). The programs gave the values of Km, Vmax, and inhibition constants.
Fractional Inhibition. From kinetic experiments, Ki was calculated as described above under "Data Processing" after making replots of slopes (and/or intercepts) versus inhibitor concentration. […] Substituting v and vi from the corresponding rate equations in the absence of (v=(Vmax [S])/(Km +[S])) and presence of a (competitive) inhibition (Equation 1), the following relationship for FI is obtained: [formula] After substituting [S], Km, and [I] (see above), the equation for the fractional (competitive) inhibition simplifies to: [formula] and the mathematical relationship between FI and Ki of competitive inhibitors is represented by the continuous curve in FIG. 2 in Rozhin et al., J. Biol. Chem., 252, 7214-7220, 1977. The dashed line represents the relationship between FI and the Ki of pure noncompetitive inhibition derived mathematically in an analogous manner and expressed as [formula] Since [I]=22.2 μM, [formula]

The Ki is a dissociation constant, usually derived from enzyme kinetics or from competition with a known ligand. The term inhibition denotes the relative decrease from the control value, in per cent. `C[C@]12CC[C@@H]3c4ccc(O)cc4CC[C@H]3[C@@H]1CC[C@@H]2O` [1,3,5(10)Estratriene-3,17β-diol]: the Ki (inhibitors 3 to 6, 12 and 16, from kinetic experiments, read-out: Ki (Table I), determined experimentally) worked out at 6.1 µM. For the same molecule, under “pH 8.1, read-out: Fractional Inhibition (Table I)”, the inhibition at 22.2 µM worked out at 68%.
